# Results from patent US7569225B2, “Immunogenic lipopeptides comprising T-helper and B-cell epitopes” (The Council of The Queensland Institute of Medical Research, priority 2002, dated 2009).
# Where “and” joins values, the source holds several entries; their conditions need not be identical. Identical values can stand only once. Entries after “also recorded” stand apart in the source; their conditions may differ. Like-named read-outs stand apart in the source and are kept apart here. Where no end group is shown, it is not given here. Pam3Cys = lipoamino acid of Formula (III) conjugated to the N-terminus; Pam2Cys = lipid of Formula (II)
# Experiments:
# [1] = test system: M1 GAS strain; assay: Survival of inoculated mice after intranasal challenge with GAS; assay type: in vivo, Group A Streptococcus; conditions: Quackenbush mice, challenge two weeks after last dose
# Procedure: Two weeks after the last dose of antigen, mice were challenged intranasally with M1 GAS strain and survival determined at various time points afterwards.
# Female outbred Quackenbush mice 4-6 weeks old (15/group) were inoculated intranasally with 60 μg of peptide-based vaccine in a total volume of 30 μl PBS. Mice received three doses of vaccine at 21-day intervals. […] Two weeks after the last dose of antigen, mice were challenged intranasally with M1 GAS strain and survival determined at various time points afterwards.
# [2] = test system: D1 cells; assay type: cell-based, BALB/c mouse
# [3] = test system: female mice; assay type: in vivo, BALB/c mice; conditions: for Incidence of pregnancy 13 weeks after 2nd Dose / Incidence of pregnancy 2 weeks after 2nd Dose: 20 nmoles subcutaneously; for Incidence of pregnancy 13 weeks after 2nd Dose: animals per group of five; for Incidence of pregnancy 2 weeks after 2nd Dose: animals that dropped litters per group of five; for Pregnancy status (No. of animals per group that dropped litters): fertility experiment initiated two weeks after second dose
# [4] = Solubility of peptides and lipopeptides in saline (visual inspection); assay type: physicochemical; conditions: for solubility / appearance of solution: visual inspection
# Procedure: FIG. 2 is a photographic representation showing the solubilities of lipopeptides designated [Th]-Lys(Pam2Cys-Ser-Ser)-[B] (left) and Pam2Cys-Ser-Ser-[Th]-[B] (right) in FIG. 1, wherein the polypeptide moieties have the amino acid sequences set forth in SEQ ID NO: 7 and SEQ ID NO: 5, respectively. Both solutions are approximately 1 mg/ml lipopeptide in saline solution.
# Enhanced solubility was most evident in those cases where lipid was attached between the two epitopes at the approximate centre of the molecule. The lipopeptides designated [Th]-Lys(Pam2Cys)-[B] and [Th]-Lys(Pam3Cys)-[B] were soluble in saline at concentrations of at least 8 mg/ml (no higher concentrations were examined), whereas constructs in which lipid was attached to the N-terminus of the sequence formed opalescent solutions at concentrations as low as 0.25 mg/ml.
# We considered that the insoluble nature of this construct would prevent it from being considered as a viable proposition for manufacture as a vaccine.
# [5] = test system: J14; conditions: Quackenbush mice, 60 μg intranasally, three doses at 21-day intervals, seven days after final dose; versus control groups
# Procedure: The lipoamino acid moiety Pam2Cys-Ser-Ser was added to an internal lysine positioned between the T-helper epitope and the B-cell epitope in all lipopeptides tested. In the lipopeptide [Th]-Lys(Pam2Cys-Ser-Ser)-[J14], this is the only lipid moiety, whereas in the lipopeptide Pam2Cys-Ser-Ser-[Th]-Lys(Pam2Cys-Ser-Ser)-[J14], an additional lipoamino acid moiety Pam2Cys-Ser-Ser was added to the N-terminal amino group of the T-helper epitope. […] Seven days following the final dose mice were bled from the tail vein and J14-specific serum IgG was determined.
# ELISA assays were carried out on serum samples as described essentially by Ghosh et al., Int Immun. […] The titres of antibody are expressed as the reciprocal of the highest dilution of serum to achieve an OD of 0.2, which represents approximately 5 times the background binding in the absence of antibody. The isotype of antibodies specific for LHRH or J14 was determined using rabbit antisera directed against mouse IgM, IgG1, IgG2a, IgG2b, IgG3 or IgA (ICN Pharmaceuticals Inc., Costa Mesa, Calif.) as previously described by Ghosh et al., Int Immun.
# Female outbred Quackenbush mice 4-6 weeks old (15/group) were inoculated intranasally with 60 μg of peptide-based vaccine in a total volume of 30 μl PBS. […] Seven days following the final dose mice were bled from the tail vein and J14-specific serum IgG was determined.
# [6] = test system: J14; conditions: Quackenbush mice, 60 μg intranasally, three doses, 6 days after last dose
# Procedure: Female outbred Quackenbush mice 4-6 weeks old (15/group) were inoculated intranasally with 60 μg of peptide-based vaccine in a total volume of 30 μl PBS. Mice received three doses of vaccine at 21-day intervals. Fecal IgA was determined 6 days following the last dose of antigen.
# [7] = test system: J14; conditions: Quackenbush mice, 60 μg intranasally, three doses, eight days after final dose; versus control groups
# Procedure: Female outbred Quackenbush mice 4-6 weeks old (15/group) were inoculated intranasally with 60 μg of each peptide-based vaccine in a total volume of 30 μl PBS. Mice received three doses of vaccine at 21-day intervals. Eight days following the final dose saliva was collected from individual mice and the average J14-specific salivary IgA antibody titres were determined by standard ELISA.
# Female outbred Quackenbush mice 4-6 weeks old (15/group) were inoculated intranasally with 60 μg of peptide-based vaccine in a total volume of 30 μl PBS. Mice received three doses of vaccine at 21-day intervals. […] Eight days following the final dose saliva was collected from individual mice and the average J14-specific salivary IgA antibody titres were determined by standard ELISA.
compound,measurement,setting,value
[Th]-[J14]: non-lipidated peptide of T-helper epitope P25 (SEQ ID NO: 24) and J14 (SEQ ID NO: 101) (KLIPNASLIENCTKAELKQAEDKVKASREAKKQVEKALEQLEDKVK),survival following intranasal challenge with GAS (FIG. 16),[1],some protective immunity
Pam2Cys-[Th]—[B]: lipid of Formula (II) conjugated to the N-terminus of peptide [Th]-[B] (SEQ ID NO: 5) (Pam2Cys-GALNNRFQIKGVELKSEHWSYGLRPG),ability to cause maturation of DC / up-regulate MHC class II expression (FIG. 5),[2],least effective
same,Incidence of pregnancy 13 weeks after 2nd Dose,[3],3/5
same,Incidence of pregnancy 2 weeks after 2nd Dose,[3],2/5
same,Incidence of pregnancy 2 weeks after 2nd Dose,[3]; listed as Pam2Cys-[Th]-[B],two animals
GALNNRFQIKGVELKSEHWSYGLRPG [[Th]—[B]],Pregnancy status (No. of animals per group that dropped litters),"[3]; 1 nmole, subcutaneous",3/5
same,Pregnancy status (No. of animals per group that dropped litters),"[3]; 10 nmole, subcutaneous",1/5
same,Incidence of pregnancy 13 weeks after 2nd Dose,[3],0/5
same,Incidence of pregnancy 13 weeks after 2nd Dose,[3]; listed as [Th]-[B],still infertile
same,Incidence of pregnancy 2 weeks after 2nd Dose,[3],0/5
same,Incidence of pregnancy 2 weeks after 2nd Dose,[3]; listed as [Th]-[B],None of the mice
same,Pregnancy No. animals per group that dropped litters,"[3]; subcutaneous, initiated two weeks after second dose",0/5
CCCCCCCCCCCCCCCC(=O)OCC(CSC[C@H](N)C(=O)N[C@@H](CO)C(=O)N[C@@H](CO)C(=O)NCCCC[C@H](NC(=O)[C@H](CO)NC(=O)[C@H](CCCCN)NC(=O)[C@H](CC(C)C)NC(=O)[C@H](CCC(=O)O)NC(=O)[C@@H](NC(=O)CNC(=O)[C@H](CCCCN)NC(=O)[C@@H](NC(=O)[C@H](CCC(N)=O)NC(=O)[C@H](Cc1ccccc1)NC(=O)[C@H](CCCNC(=N)N)NC(=O)[C@H](CC(N)=O)NC(=O)[C@H](CC(N)=O)NC(=O)[C@H](CC(C)C)NC(=O)[C@H](C)NC(=O)CN)[C@@H](C)CC)C(C)C)C(=O)N[C@@H](CCC(=O)O)C(=O)N[C@@H](Cc1c[nH]cn1)C(=O)N[C@@H](Cc1c[nH]c2ccccc12)C(=O)N[C@@H](CO)C(=O)N[C@@H](Cc1ccc(O)cc1)C(=O)NCC(=O)N[C@@H](CC(C)C)C(=O)N[C@@H](CCCNC(=N)N)C(=O)N1CCC[C@H]1C(=O)NCC(=O)O)OC(=O)CCCCCCCCCCCCCCC (stereo partly drawn) [[Th]-Lys(Pam2Cys-Ser-Ser)-[B]],solubility / appearance of solution,[4],clear; also recorded: higher solubility
Pam3Cys-Ser-Ser-[Th]—[B]: lipoamino acid of Formula (III) conjugated to the N-terminus of peptide [Th]-[B] (SEQ ID NO: 5) (Pam3Cys-SSGALNNRFQIKGVELKSEHWSYGLRPG),Incidence of pregnancy 13 weeks after 2nd Dose,[3],0/5
same,Incidence of pregnancy 2 weeks after 2nd Dose,[3],2/5
same,Incidence of pregnancy 2 weeks after 2nd Dose,[3]; listed as Pam3Cys-Ser-Ser-[Th]-[B],two animals
same,solubility / appearance of solution,[4],so insoluble that it could not be purified by RP-HPLC
CCCCCCCCCCCCCCCC(=O)OCC(CSC[C@H](N)C(=O)NCCCC[C@H](NC(=O)[C@H](CO)NC(=O)[C@H](CCCCN)NC(=O)[C@H](CC(C)C)NC(=O)[C@H](CCC(=O)O)NC(=O)[C@@H](NC(=O)CNC(=O)[C@H](CCCCN)NC(=O)[C@@H](NC(=O)[C@H](CCC(N)=O)NC(=O)[C@H](Cc1ccccc1)NC(=O)[C@H](CCCNC(=N)N)NC(=O)[C@H](CC(N)=O)NC(=O)[C@H](CC(N)=O)NC(=O)[C@H](CC(C)C)NC(=O)[C@H](C)NC(=O)CN)[C@@H](C)CC)C(C)C)C(=O)N[C@@H](CCC(=O)O)C(=O)N[C@@H](Cc1c[nH]cn1)C(=O)N[C@@H](Cc1c[nH]c2ccccc12)C(=O)N[C@@H](CO)C(=O)N[C@@H](Cc1ccc(O)cc1)C(=O)NCC(=O)N[C@@H](CC(C)C)C(=O)N[C@@H](CCCNC(=N)N)C(=O)N1CCC[C@H]1C(=O)NCC(=O)O)OC(=O)CCCCCCCCCCCCCCC (some centres unmarked) [[Th]-Lys(Pam2Cys)-[B]],solubility,"[4]; no higher concentrations were examined, read-out: soluble in saline at concentrations of at least",≥ 8000 µg/mL
[Th]-Lys(Pam2Cys-Ser-Ser)-[J14]: P25-Lys-J14 (SEQ ID NO: 106) with Pam2Cys-Ser-Ser on the internal lysine between the epitopes (KLIPNASLIENCTKAELKKQAEDKVKASREAKKQVEKALEQLEDKVK; not fully specified (residue 18); also: Pam2Cys-Ser-Ser on internal lysine between the epitopes (K18 or K19)),J14-specific serum IgG titres (FIG. 12),[5],significantly higher (P<0.05) serum IgG titres
same,faecal IgA titres (FIG. 15),[6],significant (P<0.05) faecal IgA titres
same,J14-specific salivary IgA titres (FIG. 14),[7],far superior
same,survival following intranasal challenge with GAS (FIG. 16),[1],best survival
GALNNRFQIKGVELKSKEHWSYGLRPG [[Th]-Lys-[B]],D1 maturation rate,[2],about 26%
same,Incidence of pregnancy 13 weeks after 2nd Dose,[3],still infertile and 0/5
same,Incidence of pregnancy 2 weeks after 2nd Dose,[3],None of the mice and 0/5
CCCCCCCCCCCCCCCC(=O)OCC(CSC[C@H](N)C(=O)N[C@@H](CO)C(=O)N[C@@H](CO)C(=O)NCC(=O)N[C@@H](C)C(=O)N[C@@H](CC(C)C)C(=O)N[C@@H](CC(N)=O)C(=O)N[C@@H](CC(N)=O)C(=O)N[C@@H](CCCNC(=N)N)C(=O)N[C@@H](Cc1ccccc1)C(=O)N[C@@H](CCC(N)=O)C(=O)N[C@H](C(=O)N[C@@H](CCCCN)C(=O)NCC(=O)N[C@H](C(=O)N[C@@H](CCC(=O)O)C(=O)N[C@@H](CC(C)C)C(=O)N[C@@H](CCCCN)C(=O)N[C@@H](CO)C(=O)N[C@@H](CCC(=O)O)C(=O)N[C@@H](Cc1c[nH]cn1)C(=O)N[C@@H](Cc1c[nH]c2ccccc12)C(=O)N[C@@H](CO)C(=O)N[C@@H](Cc1ccc(O)cc1)C(=O)NCC(=O)N[C@@H](CC(C)C)C(=O)N[C@@H](CCCNC(=N)N)C(=O)N1CCC[C@H]1C(=O)NCC(=O)O)C(C)C)[C@@H](C)CC)OC(=O)CCCCCCCCCCCCCCC (stereo partly drawn) [Pam2Cys-Ser-Ser-[Th]—[B]],solubility / appearance of solution,[4],opalescent
